41 molecules from patent US8426429B2, “2-amino-quinazoline derivatives useful as inhibitors of β-secretase (BACE)” (Jansssen Pharmaceutica N.V., priority 2004, dated 2013) can be followed below.

The target of this assay is T1, β-secretase (BACE) (Homo sapiens, UniProt P56817).
T1 construct: purchased Panvera
Put plainly: BACE FS1 % Inhibition Assay. It counts as biochemical. In short, it runs like this:
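Percent inhibition per compound concentration was referenced to vehicle-treated enzyme and no-enzyme wells. Enzyme at a 4 μg/mL working stock plus compound was mixed for 20 min at room temperature before the FS1 substrate (300 μg/mL working stock) was added for a 1 h room-temperature reaction.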

Some results are limits rather than exact numbers.

T1 sequence (P56817 46-501): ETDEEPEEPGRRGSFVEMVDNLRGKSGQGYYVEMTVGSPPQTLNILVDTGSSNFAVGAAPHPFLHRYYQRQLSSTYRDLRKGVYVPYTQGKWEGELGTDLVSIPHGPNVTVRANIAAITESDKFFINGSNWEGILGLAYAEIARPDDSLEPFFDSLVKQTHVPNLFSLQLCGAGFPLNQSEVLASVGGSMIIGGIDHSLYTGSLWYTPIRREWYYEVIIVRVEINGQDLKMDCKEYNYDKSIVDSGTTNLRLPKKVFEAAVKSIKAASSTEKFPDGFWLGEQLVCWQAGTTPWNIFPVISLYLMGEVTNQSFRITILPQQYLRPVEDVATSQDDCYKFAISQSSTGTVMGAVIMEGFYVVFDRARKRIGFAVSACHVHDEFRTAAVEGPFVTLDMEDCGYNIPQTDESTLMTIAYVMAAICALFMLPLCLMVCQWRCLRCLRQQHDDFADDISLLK

As for `CC(C)c1ccccc1Oc1ccc2c(c1)CN(C(CC(=O)NC1CCCCC1)C1CCCCC1)C(N)=N2` (stereo not drawn) [Compound 313], the “% Inhibition (FS)” value is less than 30% (0.3 μM test compound), less than 30% (1 μM test compound) and 31% (3 μM test compound).

For the molecule `Cc1cccc(Sc2ccc3c(c2)CN(Cc2cccc(C(=O)N(C)C4CCCCC4)c2)C(N)=N3)c1` [Compound 405], the “% Inhibition (FS)” value by setting is: (0.3 μM test compound) 43%; (1 μM test compound) 106%; (3 μM test compound) 118%.

Take `CC(C)C(CC(=O)N(C)C1CCCCC1)N1Cc2cc(Oc3ccccc3)ccc2N=C1N` (stereo not drawn) [Compound 201]: the “% Inhibition (FS)” value runs as follows: (0.3 μM test compound) less than 30%; (1 μM test compound) less than 30%; (3 μM test compound) 66%.

Consider `CC(C)(C)c1ccc(C(=O)NCCN2Cc3cc(Oc4ccccc4)ccc3N=C2N)cc1` [Compound 156], for which the “% Inhibition (FS)” value is less than 30% (3 μM test compound) and 40% (10 μM test compound).

In the case of `CCCC=Cc1ccc2c(c1)CN(CCNC(=O)C(C)(C)C)C(N)=N2` [Compound 574], the “% Inhibition (FS)” value was less than 30% (0.3 μM test compound), less than 30% (1 μM test compound) and less than 30% (3 μM test compound).

Take `CN(CCN1Cc2cc(Oc3ccccc3)ccc2N=C1N)C1CCCCC1` [Compound 429]: the “% Inhibition (FS)” value reads like this: (0.3 μM test compound) less than 30%; (1 μM test compound) less than 30%; (3 μM test compound) less than 30%.

As for `COc1ccc(C)cc1-c1ccc2c(c1)CN(CCNC(=O)C1CCCCC1)C(N)=N2` [Compound 630], the “% Inhibition (FS)” value is, setting by setting: (0.3 μM test compound) less than 30%; (1 μM test compound) less than 30%; (3 μM test compound) 48%.

As to `CCCC(CCC(=O)NC1CCCCCC1)N1Cc2cc(Oc3ccccc3)ccc2N=C1N` (stereo not drawn) [Compound 128], the “% Inhibition (FS)” value (3 μM test compound) turned out to be 97% and the “% Inhibition (FS)” value (10 μM test compound) was 108%.

Regarding `CC(=O)c1cccc(-c2ccc3c(c2)CN(CCNC(=O)Cc2ccccc2)C(N)=N3)c1` [Compound 598], the “% Inhibition (FS)” value is, setting by setting: (0.3 μM test compound) less than 30%; (1 μM test compound) less than 30%; (3 μM test compound) 36%.

`COc1ccccc1-c1ccc2c(c1)CN(CCNC(=O)CCN)C(N)=N2` [Compound 493]: the “% Inhibition (FS)” value (0.3 μM test compound) is less than 30%, the “% Inhibition (FS)” value (1 μM test compound) is given as less than 30% and the “% Inhibition (FS)” value (3 μM test compound) stood at 49%.

For `COC1CCCC(C(=O)NCCN2Cc3cc(-c4ccccc4)ccc3N=C2N)C1` (stereo not drawn) [Compound 703], the “% Inhibition (FS)” value is given as less than 30% (0.3 μM compound, FS1 substrate); 46% (1 μM compound, FS1 substrate); 83% (3 μM compound, FS1 substrate).

Turning to `CN(C(=O)CCC(CO)N1Cc2cc(Oc3ccccc3)ccc2N=C1N)C1CCCCC1` (stereo not drawn) [Compound 557], the “% Inhibition (FS)” value by setting is: (0.3 μM test compound) less than 30%; (1 μM test compound) less than 30%; (3 μM test compound) less than 30%.

For the molecule `CCC(c1cccc(C(=O)N(C2CCCCC2)C2CCCCC2)c1)N1Cc2cc(Oc3ccccc3)ccc2N=C1N` (stereo not drawn) [Compound 419], the “% Inhibition (FS)” value runs as follows: (0.3 μM test compound) 38%; (1 μM test compound) 64%; (3 μM test compound) 109%.

`CN(C(=O)c1cccc(CN2Cc3cc(Oc4ccccc4C4CCCC4)ccc3N=C2N)c1)C1CCCCC1` [Compound 512]: the “% Inhibition (FS)” value reads like this: (0.3 μM test compound) less than 30%; (1 μM test compound) less than 30%; (3 μM test compound) 51%.

As for `CCC(c1cccc(C(=O)N(C)C2CCCCC2)c1)N1Cc2cc(-c3ccccc3OC)ccc2N=C1N` (stereo not drawn) [Compound 395], the “% Inhibition (FS)” value reads like this: (0.3 μM test compound) 69%; (1 μM test compound) 107%; (3 μM test compound) 118%.

On to `CCOC(=O)C1CCC(N(C)C(=O)CCC(C2CCCCC2)N2Cc3cc(Oc4ccccc4)ccc3N=C2N)CC1` (stereo not drawn) [Compound 763], for which the “% Inhibition (FS)” value is, setting by setting: (0.3 μM compound, FS1 substrate, 0.3 µM) less than 30%; (1 μM compound, FS1 substrate, 1 µM) 84%.

`CCCC(=O)NCCN1Cc2cc(-c3cnc4ccccc4c3)ccc2N=C1N` [Compound 673]: the “% Inhibition (FS)” value was 34% (0.3 μM compound, FS1 substrate); less than 30% (1 μM compound, FS1 substrate); less than 30% (3 μM compound, FS1 substrate).

With `CN(C(=O)CCC(C1CCCCC1)N1Cc2cc(Oc3ccccc3)ccc2N=C1N)c1ccc(C(=O)O)cc1` (stereo not drawn) [Compound 766], the “% Inhibition (FS)” value (0.3 μM compound, FS1 substrate) is less than 30%; the “% Inhibition (FS)” value (1 μM compound, FS1 substrate) is recorded as less than 30%; the “% Inhibition (FS)” value (3 μM compound, FS1 substrate) is less than 30%.

`CN(C(=O)c1cccc(CN2Cc3cc(-c4cccc(-c5ccccc5)c4)ccc3N=C2N)c1)C1CCCCC1` [Compound 171]: the “% Inhibition (FS)” value runs as follows: (0.3 μM test compound) less than 30%; (1 μM test compound) 31%; (3 μM test compound) 42%.

For the molecule `CN(C(=O)c1cccc(CN2Cc3cc(Oc4ccccc4CC(N)=O)ccc3N=C2N)c1)C1CCCCC1` [Compound 235], the “% Inhibition (FS)” value is, setting by setting: (0.3 μM test compound) less than 30%; (1 μM test compound) 46%; (3 μM test compound) less than 30%.

As for `NC1=Nc2ccc(Oc3ccccc3)cc2CN1Cc1cccc(C(=O)N2CCCC3CCCCC32)c1` (stereo not drawn) [Compound 212], the “% Inhibition (FS)” value by setting is: (0.3 μM test compound) less than 30%; (1 μM test compound) less than 30%; (3 μM test compound) 32%.

As for `CN(C(=O)c1cccc(CN2Cc3cc(-c4ccc(C5CCCCC5)cc4)ccc3N=C2N)c1)C1CCCCC1` [Compound 267], the “% Inhibition (FS)” value (0.3 μM test compound) was less than 30%, the “% Inhibition (FS)” value (1 μM test compound) came out at 39% and the “% Inhibition (FS)” value (3 μM test compound) was 38%.

For the molecule `NC1=Nc2ccc(Oc3ccccc3)cc2CN1Cc1cccc(C(=O)N2CCCCC2)c1` [Compound 443], the “% Inhibition (FS)” value is, setting by setting: (0.3 μM test compound) less than 30%; (1 μM test compound) 39%; (3 μM test compound) 67%.

Take `CSc1ccc(Sc2ccc3c(c2)CN(Cc2cccc(C(=O)N(C)C4CCCCC4)c2)C(N)=N3)cc1` [Compound 413]: the “% Inhibition (FS)” value by setting is: (0.3 μM test compound) less than 30%; (1 μM test compound) less than 30%; (3 μM test compound) 53%.

For `NC1=Nc2ccc(Oc3ccccc3)cc2CN1C(CNC(=O)C12CC3CC(CC(C3)C1)C2)C1CCCCC1` (stereo not drawn) [Compound 312], the “% Inhibition (FS)” value (0.3 μM test compound) came out at 74%, the “% Inhibition (FS)” value (1 μM test compound) worked out at 103% and the “% Inhibition (FS)” value (3 μM test compound) is 115%.

As to `CCCCCC1CC2(C(=O)NCCN3Cc4cc(Oc5ccccc5)ccc4N=C3N)CCC1CC2` (stereo not drawn) [Compound 194], the “% Inhibition (FS)” value by setting is: (0.3 μM test compound) less than 30%; (1 μM test compound) 42%; (3 μM test compound) 38%.

With `CCCCC(CC)C(=O)NCCN1Cc2cc(-c3ccccc3C)ccc2N=C1N` (stereo not drawn) [Compound 662], the “% Inhibition (FS)” value amounted to 66% (0.3 μM compound, FS1 substrate) and 97% (1 μM compound, FS1 substrate).

As for `CCCC(=O)NCCN1Cc2cc(-c3cncnc3)ccc2N=C1N` [Compound 569], the “% Inhibition (FS)” value runs as follows: (0.3 μM test compound) less than 30%; (1 μM test compound) less than 30%; (3 μM test compound) less than 30%.

For `CC(CC(=O)NCCN1Cc2cc(-c3ccccc3Cl)ccc2N=C1N)C(F)(F)F` (stereo not drawn) [Compound 683], the “% Inhibition (FS)” value came to 64% (0.3 μM compound, FS1 substrate) and 86% (1 μM compound, FS1 substrate).

As to `CNC(=O)c1ccccc1Sc1ccc2c(c1)CN(Cc1cccc(C(=O)N(C)C3CCCCC3)c1)C(N)=N2` [Compound 416], the “% Inhibition (FS)” value (0.3 μM test compound) is less than 30%, the “% Inhibition (FS)” value (1 μM test compound) was less than 30% and the “% Inhibition (FS)” value (3 μM test compound) is −3%.

For `CC(=O)Nc1cccc(-c2ccc3c(c2)CN(Cc2cccc(C(=O)N(C)C4CCCCC4)c2)C(N)=N3)c1` [Compound 166], the “% Inhibition (FS)” value by setting is: (0.3 μM test compound) less than 30%; (1 μM test compound) 37%; (3 μM test compound) 74%.

For `CC(=O)N1CCC(C(=O)NCCN2Cc3cc(-c4ccccc4C)ccc3N=C2N)CC1` [Compound 695], the “% Inhibition (FS)” value is given as less than 30% (0.3 μM compound, FS1 substrate); less than 30% (1 μM compound, FS1 substrate); 54% (3 μM compound, FS1 substrate).

Take `NC1=Nc2ccc(Oc3ccccc3)cc2CN1C(c1ccccc1)c1cccc(C(=O)N(C2CCCCC2)C2CCCCC2)c1` (stereo not drawn) [Compound 132]: the “% Inhibition (FS)” value is, setting by setting: (3 μM test compound) 54%; (10 μM test compound) 118%.

Consider `NC1=Nc2ccc(-c3cccc(C(F)(F)F)c3)cc2CN1CCNC(=O)Cc1ccccc1` [Compound 600], for which the “% Inhibition (FS)” value is reported as less than 30% (0.3 μM test compound), less than 30% (1 μM test compound) and 41% (3 μM test compound).

As to `NC1=Nc2ccc(-c3ccccc3Cl)cc2CN1CCNC(=O)C12CC3CC(CC(C3)C1)C2` [Compound 651], the “% Inhibition (FS)” value (0.3 μM test compound) is listed as less than 30%, the “% Inhibition (FS)” value (1 μM test compound) is listed as 51% and the “% Inhibition (FS)” value (3 μM test compound) is recorded as 96%.

Consider `CC(c1ccccc1)c1ccc2c(c1)CN(Cc1cccc(C(=O)N(C)C3CCCCC3)c1)C(N)=N2` (stereo not drawn) [Compound 332], for which the “% Inhibition (FS)” value is, setting by setting: (0.3 μM test compound) less than 30%; (1 μM test compound) less than 30%; (3 μM test compound) less than 30%.

Regarding `C[C@@H](CNC(=O)C1CCCCC1)N1Cc2cc(Oc3ccccc3)ccc2N=C1N` [Compound 486], the “% Inhibition (FS)” value (0.3 μM test compound) is on record as less than 30%, the “% Inhibition (FS)” value (1 μM test compound) is recorded as less than 30% and the “% Inhibition (FS)” value (3 μM test compound) is less than 30%.

Regarding `NC1=Nc2ccc(Oc3ccccc3)cc2CN1Cc1ocnc1C(=O)NC1CCCCC1` [Compound 640], the “% Inhibition (FS)” value reads like this: (0.3 μM test compound) less than 30%; (1 μM test compound) less than 30%; (3 μM test compound) less than 30%.

Consider `CC(C)C(CC(=O)N(C(C)C)C1CCCCC1)N1Cc2cc(Oc3ccccc3)ccc2N=C1N` (stereo not drawn) [Compound 202], for which the “% Inhibition (FS)” value reads like this: (0.3 μM test compound) less than 30%; (1 μM test compound) less than 30%; (3 μM test compound) less than 30%.

For the molecule `NC1=Nc2ccc(Oc3ccccc3)cc2CN1Cc1cccc(CNC(=O)C(F)(F)F)c1` [Compound 307], the “% Inhibition (FS)” value was less than 30% (0.3 μM test compound), less than 30% (1 μM test compound) and less than 30% (3 μM test compound).

On to `CN(C(=O)c1cccc(CN2Cc3cc(OCc4ccccc4-c4ccccc4)ccc3N=C2N)c1)C1CCCCC1` [Compound 513], for which the “% Inhibition (FS)” value is less than 30% (0.3 μM test compound), less than 30% (1 μM test compound) and less than 30% (3 μM test compound).
